# Measurements published in US12479858B2, “Macrocyclic compounds as sting agonists and methods and uses thereof” (Lupin Limited, priority 2019, dated 2025).
# Entries after “also recorded” stand apart in the source; their conditions may differ. Structures can show the parent of a compound that is named as a salt. Where two headings read alike, the source gives them in different places.
# Experiments:
# [1] = Apparent solubility/extended kinetic solubility by UHPLC; assay type: physicochemical; conditions: aqueous buffer, thermodynamic from solid, phosphate buffer, 37° C.
# Outline: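 About 0.5 mg solid sample, in duplicate, with 5 μL DMSO and 1 mL phosphate buffer, shaken 24 hrs at 37° C, then cooled and centrifuged. Supernatant quantified by UHPLC against a calibration curve; solubility reported in μM.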
# [2] = system: Interferon beta (IFNβ), interleukin-6 (IL-6) and tumor necrosis factor alpha (TNFα); test: Serum and tumor cytokine levels in CT26 tumor-bearing mice (ELISA); assay type: in vivo, BALB/c mice
# Experimental: (§1) Pharmacokinetic and Pharmacodynamic Profiling and Estimation of Immune Cell Infiltration in Tumors Following Treatment with Compounds 2, 6, 8, 12 and 14
# (§2) Serum and tumor cytokine levels and corresponding compound concentrations in mouse plasma were determined following single-dose intravenous administration in CT26 (murine colorectal carcinoma) tumor-bearing mice. Briefly, naïve BALB/c mice in the age group of 6-8 weeks were inoculated with 0.1 million CT-26 cells/animal in phosphate buffered saline (PBS), subcutaneously. […] Blood and tumor samples were harvested at various time points up to 24 h post-dose. Tumor samples were homogenized and prepared for cytokine estimation (ELISA) and compound concentration were determined by LC-MS/MS. Serum aliquots and tumor samples were snap-frozen and stored at −80° C. till further analysis. Serum and tumor samples were evaluated for Interferon beta (IFNβ), interleukin-6 (IL-6) and tumor necrosis factor alpha (TNFα) by enzyme linked immunosorbent assay (ELISA) using kits from R & D systems (Quantikine mouse IL-6 and TNFα kits) and PBL biosciences (Verikine mouse IFNβ kit).
# Cytokine analysis from mouse serum samples: For IL-6 and TNFα estimation, 50 μL of test samples or internal standard or control were applied to wells in duplicates and incubated for 2 h at room temperature, followed by aspiration and washing four times with 400 μL of wash buffer. 100 μL of mouse IL-6 or TNFα conjugate solution was added and incubated further for 2 h at room temperature and followed later by 4 wash cycles. 100 μL of substrate solution was added to each well with addition of stop solution after 30 min. Optical density was measured at 450 nm averaged and was used for further calculations following subtraction of respective blank controls. Cytokine concentrations were determined by interpolating the optical density of samples into the reference standard curve utilizing four parameter logistic (4-PL) curve-fit. Cytokine concentrations were normalized with their respective dilution factors and represented in pg/mL. For IFNβ estimation, 100 μL test sample or internal standard or controls were applied to the wells in duplicates and incubated for 1 h at room temperature followed by three washes and addition of the anti-mouse IFNβ antibody solution with further 1 h incubation. This was followed by addition of horseradish peroxidase (HRP) solution and three washes, later addition of TMB substrate and reading the optical density at 450 nm. Optical densities were blank-subtracted and interpolated to the reference standard utilizing the four parameter logistic (4-PL) curve-fit. Cytokine concentrations were normalized with their respective dilution factors and represented in pg/mL. Tables 4 and 5 indicate cytokine levels for compounds 2, 6, 8, 12, and 14 in serum and tumor at different administered doses.
# Cytokine analysis from tumor samples: Tumor samples were homogenized in a bead-based homogenizer and lysates were prepared with buffer supplemented with 1% Triton X-100 and protease inhibitors. Cytokine levels were estimated by ELISA and expressed as pg/g tumor.
# [3] = Plasma and tumor compound concentrations in CT26 tumor-bearing mice (LC-MS/MS); assay type: in vivo, BALB/c mice; conditions: for concentration at 3.5 h / concentration at 8 h / concentration at 12 h: BALB/c, mouse, intravenous; for concentration at 12 h: 12 h (Table 3)
# Experimental: as §1, §2
# Bioanalysis of plasma and tumor samples: Plasma and tumor concentrations of test compounds were determined by LC-MS/MS method. Tumor samples were homogenized utilizing a bead-based homogenizer. Plasma samples and tumor homogenates were extracted using protein precipitation method with organic solution containing respective internal standards. Plasma and tumor concentrations were determined against respective calibration curve. Table 3 indicates the concentration of Compound 2 in plasma and tumor at different administered doses. Table 4 indicates the concentration of Compounds 6, 8, 12, and 14 in plasma and tumor at different administered doses. Table 5 indicates cytokine levels for Compound 2 in serum and tumor at different doses. Table 6 indicates cytokine levels for Compounds 6, 8, 12 and 14 in serum and tumor at 0.375 mpk.
# [4] = system: CD3^+CD8^+ T cells; test: Estimation of immune cell infiltration in tumors (flow cytometry); assay type: in vivo, Balb/c mice
# Experimental: Estimation of immune cell infiltration in tumors: CT-26 tumor-bearing Balb/c mice were treated intravenously with 0.375 mg/kg of test compounds and blood and tumors were processed for analysis of CD8^+, CD3^+ and CD45^+ T cells at 24 h and 96 h after start of treatment. Blood samples were subjected to RBC lysis and the cells were recovered by centrifugation. Following wash with PBS, the cells were blocked using TruStain FcX™ blocking antibody and stained with fluorophore-tagged anti-CD45, anti-CD3 and anti-CD8 antibodies. Tumor samples were minced and subjected to tissue digestion using freshly prepared collagenase-IV solution (1 mg/ml) containing DNase (0.05 mg/ml) for 1-1.5 h at 37° C. and 150-200 rpm. Single cell suspension was prepared by filtering it through a 100 μm mesh and checked for cell viability. Cells were stained with various antibodies as mentioned above. The distinct T cell subsets were analysed on FACS Canto II (BD) and percentage of each population was calculated after initial gating of CD45^+ lymphocyte population.
# [5] = CT26 tumor-bearing mice, single i.v. dose
compound,measurement,setting,value
"CCn1nc(C)cc1C(=O)Nc1nc2cc(C(N)=O)cc3c2n1C/C=C/Cn1c(NC(=O)c2cc(C)nn2CC)nc2cc(C(=O)N[C@H]4CC[C@H](C(=O)O)CC4)cc(c21)OCCCO3 [Compound 2, (1R,4R)-4-((E)-12-carbamoyl-1,15-bis(1-ethyl-3-methyl-1H-pyrazole-5-carboxamido)-8,9,16,19-tetrahydro-7H-6,10-dioxa-2,14,15a,19a-tetraazacyclopentadeca[3,2,1-cd:8,9,10-c′d′]diindene-4-carboxamido)cyclohexane-1-carboxylic acid sodium salt]",solubility at 24 h,[1],3.57 mM
same,Serum Cytokines IFNβ,"[2]; 0.093 mg/kg single i.v., 3.5 h",446 pg/mL
same,Serum Cytokines IL-6,"[2]; 0.093 mg/kg single i.v., 3.5 h",1323 pg/mL
same,Serum Cytokines TNFα,"[2]; 0.093 mg/kg single i.v., 3.5 h",261 pg/mL
same,Tumor Cytokines IFNβ,"[2]; 0.093 mg/kg single i.v., 3.5 h",4000 pg/g
same,Tumor Cytokines IL-6,"[2]; 0.093 mg/kg single i.v., 3.5 h",4580 pg/g
same,Tumor Cytokines TNFα,"[2]; 0.093 mg/kg single i.v., 3.5 h",2460 pg/g
same,Serum Cytokines IFNβ,"[2]; 0.093 mg/kg single i.v., 8 h",64 pg/mL
same,Serum Cytokines IL-6,"[2]; 0.093 mg/kg single i.v., 8 h",662 pg/mL
same,Serum Cytokines TNFα,"[2]; 0.093 mg/kg single i.v., 8 h",210 pg/mL
same,Tumor Cytokines IFNβ,"[2]; 0.093 mg/kg single i.v., 8 h",955 pg/g
same,Tumor Cytokines IL-6,"[2]; 0.093 mg/kg single i.v., 8 h",1100 pg/g
same,Tumor Cytokines TNFα,"[2]; 0.093 mg/kg single i.v., 8 h",637 pg/g
same,Serum Cytokines IFNβ,"[2]; 0.187 mg/kg single i.v., 3.5 h",1920 pg/mL
same,Serum Cytokines IL-6,"[2]; 0.187 mg/kg single i.v., 3.5 h",3139 pg/mL
same,Serum Cytokines TNFα,"[2]; 0.187 mg/kg single i.v., 3.5 h",574 pg/mL
same,Tumor Cytokines IFNβ,"[2]; 0.187 mg/kg single i.v., 3.5 h",4169 pg/g
same,Tumor Cytokines IL-6,"[2]; 0.187 mg/kg single i.v., 3.5 h",4798 pg/g
same,Tumor Cytokines TNFα,"[2]; 0.187 mg/kg single i.v., 3.5 h",3201 pg/g
same,Serum Cytokines IFNβ,"[2]; 0.187 mg/kg single i.v., 8 h",127 pg/mL
same,Serum Cytokines IL-6,"[2]; 0.187 mg/kg single i.v., 8 h",738 pg/mL
same,Serum Cytokines TNFα,"[2]; 0.187 mg/kg single i.v., 8 h",136 pg/mL
same,Tumor Cytokines IFNβ,"[2]; 0.187 mg/kg single i.v., 8 h",962 pg/g
same,Tumor Cytokines IL-6,"[2]; 0.187 mg/kg single i.v., 8 h",2244 pg/g
same,Tumor Cytokines TNFα,"[2]; 0.187 mg/kg single i.v., 8 h",531 pg/g
same,Serum Cytokines IFNβ,"[2]; 0.375 mg/kg single i.v., 3.5 h",8540 pg/mL
same,Serum Cytokines IL-6,"[2]; 0.375 mg/kg single i.v., 3.5 h",6014 pg/mL
same,Serum Cytokines TNFα,"[2]; 0.375 mg/kg single i.v., 3.5 h",1242 pg/mL
same,Tumor Cytokines IFNβ,"[2]; 0.375 mg/kg single i.v., 3.5 h",8044 pg/g
same,Tumor Cytokines IL-6,"[2]; 0.375 mg/kg single i.v., 3.5 h",8103 pg/g
same,Tumor Cytokines TNFα,"[2]; 0.375 mg/kg single i.v., 3.5 h",6074 pg/g
same,Serum Cytokines IFNβ,"[2]; 0.375 mg/kg single i.v., 8 h",263 pg/mL
same,Serum Cytokines IL-6,"[2]; 0.375 mg/kg single i.v., 8 h",1201 pg/mL
same,Serum Cytokines TNFα,"[2]; 0.375 mg/kg single i.v., 8 h",160 pg/mL
same,Tumor Cytokines IFNβ,"[2]; 0.375 mg/kg single i.v., 8 h",1723 pg/g
same,Tumor Cytokines IL-6,"[2]; 0.375 mg/kg single i.v., 8 h",2715 pg/g
same,Tumor Cytokines TNFα,"[2]; 0.375 mg/kg single i.v., 8 h",617 pg/g
same,Serum Cytokines IFNβ,"[2]; 0.375 mg/kg single i.v., 12 h",14 pg/mL
same,Serum Cytokines IL-6,"[2]; 0.375 mg/kg single i.v., 12 h",372 pg/mL
same,Serum Cytokines TNFα,"[2]; 0.375 mg/kg single i.v., 12 h",50 pg/mL
same,Tumor Cytokines IFNβ,"[2]; 0.375 mg/kg single i.v., 12 h",323 pg/g
same,Tumor Cytokines IL-6,"[2]; 0.375 mg/kg single i.v., 12 h",2794 pg/g
same,Tumor Cytokines TNFα,"[2]; 0.375 mg/kg single i.v., 12 h",298 pg/g
same,cytokine levels over time,[2]; [5],sustained cytokine levels
same,concentration at 3.5 h,"[3]; plasma, 0.093 mg/kg single i.v., 3.5 h, read-out: Plasma Conc.",110 ± 10 nM
same,concentration at 8 h,"[3]; plasma, 0.093 mg/kg single i.v., 8 h, read-out: Plasma Conc.",30 nM
same,concentration at 3.5 h,"[3]; plasma, 0.187 mg/kg single i.v., 3.5 h, read-out: Plasma Conc.",220 ± 20 nM
same,concentration at 8 h,"[3]; plasma, 0.187 mg/kg single i.v., 8 h, read-out: Plasma Conc.",40 ± 10 nM
same,concentration at 3.5 h,"[3]; plasma, 0.375 mg/kg single i.v., 3.5 h (Table 3), read-out: Plasma Conc.",470 ± 60 nM
same,concentration at 8 h,"[3]; plasma, 0.375 mg/kg single i.v., 8 h (Table 3), read-out: Plasma Conc.",80 ± 10 nM
same,concentration at 12 h,"[3]; plasma, 0.375 mg/kg single i.v., read-out: Plasma Conc.",50 ± 10 nM
same,concentration at 3.5 h,"[3]; tumor, 0.093 mg/kg single i.v., 3.5 h, read-out: Tumor Conc.",70 ± 20 nM
same,concentration at 8 h,"[3]; tumor, 0.093 mg/kg single i.v., 8 h, read-out: Tumor Conc.",60 ± 30 nM
same,concentration at 3.5 h,"[3]; tumor, 0.187 mg/kg single i.v., 3.5 h, read-out: Tumor Conc.",90 ± 20 nM
same,concentration at 8 h,"[3]; tumor, 0.187 mg/kg single i.v., 8 h, read-out: Tumor Conc.",120 ± 80 nM
same,concentration at 3.5 h,"[3]; tumor, 0.375 mg/kg single i.v., 3.5 h (Table 3), read-out: Tumor Conc.",230 ± 120 nM
same,concentration at 8 h,"[3]; tumor, 0.375 mg/kg single i.v., 8 h (Table 3), read-out: Tumor Conc.",140 ± 50 nM
same,concentration at 12 h,"[3]; tumor, 0.375 mg/kg single i.v., read-out: Tumor Conc.",110 ± 60 nM
same,compound levels in tumor,[3]; [5],sustained levels in tumor
same,% CD3^+CD8^+ T cells,"[4]; infiltration in tumor, 96 h post treatment, 0.375 mg/kg single i.v.",11.2 ± 0.2%
same,% CD3^+CD8^+ T cells infiltrating the tumor as compared to the vehicle-treated group,"[4]; single i.v. dose of 0.375 mg/kg, 96 h post treatment initiation, sodium salt, 0.375 mg/kg",higher percentage of T cell infiltration over that of vehicle control; also recorded: increase
